Experimental data published in US20220339143A1, “TAK-925 FOR USE IN TREATING NARCOLEPSY” (Takeda Pharmaceutical Company Limited, priority 2019, published 2022).
Read-outs that look alike come from different tables or passages of the source.

Key:
[1] = Plasma concentrations in healthy subjects (Cohort 4); type: in vivo; settings: human, intravenous, 112 mg
Protocol: Pharmacokinetics: Concentrations of Compound A in plasma, and CSF, and pharmacokinetics parameters.
Following a single 9-hour IV infusion of 112 mg to healthy adult subjects in Cohort 4, Compound A plasma concentration-time profile was consistent with that observed in Cohort 1. At 6 hours after the start of infusion, mean ratio CSF/plasma concentration of Compound A was estimated to be about 2.8%.

[2] = Multiple-dose PK of intravenous Compound A in patients with NT1 (Cohorts B1, B2), plasma; type: in vivo, human; settings: for clearance: read-out: CL, Mean (converted)
Protocol: (§1) The purpose of the study was to evaluate the safety, tolerability, pharmacokinetics and pharmacodynamics of Compound A after multiple IV administration in patients with NT1. NT1 patients were evaluated in Cohort B1 and B2 (Table 19). Compound A or placebo were administered via IV infusion over 9 hours once daily for 7 days. A total of 13 patients with NT1 were treated with Compound A or placebo (4, 4, and 5 subjects in the placebo, Compound A 11 mg, and Compound A 44 mg groups, respectively). In this part, potential efficacy of Compound A was evaluated with MWT, ESS, KSS, night-time PSG (NPSG), cataplexy frequency assessment, and PGI-C as an exploratory PD assessment.
Blood samples used for PK analysis of Compound A was collected according to Table 20. See also FIG. 12 for whole schedules of study procedures.

patients with NT1 [3] = assay: Number of cataplexy episodes (self-recorded sleep diary), multiple dose (Cohorts B1, B2); type: in vivo, human; settings: for Number of Cataplexy Episodes, Median / Number of Cataplexy Episodes, Mean: Treatment Period (Day 1-7 [until 24 hours after start of infusion])
Protocol: as §1
An overview of study schedule and PD testing in NT1 Patients is illustrated in FIG. 11. After screening, patients eligible for these parts had to discontinue any medication for narcolepsy including medications used for EDS or cataplexy. The medications had to be stopped for a minimum of 7 days or at least 5 half-lives of each medication, whichever was longer, before the first day of dosing (Day 1). As for a subject having possibility of getting injured due to severe cataplexy, the subject might have been confined to the site before Day −2 at a discretion of the investigator. In all cohorts of these parts, subjects underwent NPSG on Day −2 and baseline MWT sessions 4 times on Day −1 (at around 10:00, 12:00, 14:00, and 16:00). Study drug dosing via IV infusion was started at around 08:00. MWT was conducted on Day 1 at around 10:00, 12:00, 14:00, and 16:00. Subjects were allowed to take a nap on the days with no MWT assessment. At night of Day 6, the subjects underwent NPSG once again to evaluate the effect of multiple daytime dosing on night-time sleep structure. On Day 7, the subjects underwent MWT at the same hours as on Day −1. Cataplexy was to be evaluated by using the self-recorded sleep diary. The subjects were discharged from the study site on Day 8.

patients with NT1 [4] = assay: Safety and tolerability of multiple IV administration in patients with NT1; type: in vivo, human
Protocol: as §1

[5] = system: healthy adults, healthy elderly subjects; assay: Safety/tolerability of a single dose given as 9 hour continuous IV infusion in healthy adults and healthy elderly subjects; type: in vivo, human
Protocol: This study investigates (i) the safety and tolerability of Compound A (methyl (2R,3S)-3-((methylsulfonyl)amino)-2-(((cis-4-phenylcyclohexyl)oxy)methyl)piperidine-1-carboxylate) when a single dose given as a 9 hour continuous IV infusion is administered to healthy adults, healthy elderly subjects and patients with narcolepsy type 1 (NT1); (ii) the pharmacokinetics of Compound A when a single dose given as a 9 hour continuous IV infusion is administered to healthy adults, healthy elderly subjects and patients with narcolepsy type 1; and (iii) the pharmacodynamics (PD) effects of Compound A, primarily by evaluation of the sleep latency on MWT when a single dose given as a 9 hour continuous IV infusion is administered to patients with narcolepsy type 1.
Safety and tolerability: adverse events, vital signs, 12-lead ECG and clinical laboratory tests (hematological tests, blood biochemical tests and urinalysis)
To investigate the safety of Compound A, the treatment-emergent adverse events (TEAEs) for healthy subjects and subjects with narcolepsy type 1 (NT1 patients) treated with Compound A were evaluated. A summary of the TEAEs for healthy subjects from cohorts 1 and 2 is shown in FIG. 3, for healthy subjects from cohorts S1, S2, 3, and 4 is shown in FIG. 4, and for NT1 patients is shown in FIG. 5.

[6] = human, plasma, intravenous, 11 mg, Day 7

Structure (SMILES): COC(=O)N1CCC[C@H](NS(C)(=O)=O)[C@@H]1CO[C@H]1CC[C@@H](c2ccccc2)CC1 [Compound A, methyl (2R,3S)-3-((methylsulfonyl)amino)-2-(((cis-4-phenylcyclohexyl)oxy)methyl)piperidine-1-carboxylate]
- concentration at 0.5 h ([1]; Mean): 119 ng/mL
- concentration at 0.5 h ([1]; Median): 116 ng/mL
- concentration at 1 h ([1]; Mean): 162 ng/mL
- concentration at 1 h ([1]; Median): 156 ng/mL
- concentration at 1.5 h ([1]; Mean): 193 ng/mL
- concentration at 1.5 h ([1]; Median): 194 ng/mL
- concentration at 2 h ([1]; Mean): 186 ng/mL
- concentration at 2 h ([1]; Median): 183 ng/mL
- concentration at 3 h ([1]; Mean): 216 ng/mL
- concentration at 3 h ([1]; Median): 218 ng/mL
- concentration at 4 h ([1]; Mean): 234 ng/mL
- concentration at 4 h ([1]; Median): 224 ng/mL
- concentration at 6 h ([1]; Mean): 234 ng/mL
- concentration at 6 h ([1]; Median): 227 ng/mL
- concentration at 8 h ([1]; Mean): 177 ng/mL
- concentration at 8 h ([1]; Median): 168 ng/mL
- concentration at 9 h ([1]; Mean): 184 ng/mL
- concentration at 9 h ([1]; Median): 182 ng/mL
- AUCtau D, Mean ([2]; 11 mg, Day 1): 15.00 ng·h/mL/mg
- Cmax D Mean ([2]; 11 mg, Day 1): 1.660 ng/mL/mg
- Vax, Mean ([2]; 11 mg, Day 1): 129.6 L
- AUCtau D, Mean ([2]; 11 mg, Day 7): 16.70 ng·h/mL/mg
- Cmax D Mean ([2]; 11 mg, Day 7): 1.868 ng/mL/mg
- Cmin, Mean ([2]; 11 mg, Day 7): 0.3258 ng/mL
- PTR, Mean ([2]; 11 mg, Day 7): 57.07
- Vx, Mean ([2]; 11 mg, Day 7): 313.0 L
- t½z Mean ([2]; 11 mg, Day 7): 3.595 h
- Cmin, Geo Mean ([2]; 11 mg, Day 7 (N of Geo Mean 3)): 0.4061 ng/mL
- AUCtau D, Mean ([2]; 44 mg, Day 1): 15.70 ng·h/mL/mg
- Vax, Mean ([2]; 44 mg, Day 1): 135.0 L
- Vz, Mean ([2]; 44 mg, Day 1): 316.2 L
- AUCtau D, Mean ([2]; 44 mg, Day 7): 16.56 ng·h/mL/mg
- Cmax D Mean ([2]; 44 mg, Day 7): 1.858 ng/mL/mg
- Cmin, Mean ([2]; 44 mg, Day 7): 1.327 ng/mL
- PTR, Mean ([2]; 44 mg, Day 7): 70.28
- Vx, Mean ([2]; 44 mg, Day 7): 375.2 L
- t½z Mean ([2]; 44 mg, Day 7): 4.222 h
- drug accumulation ([2]; QD dosing, 9-hour IV infusion daily for 7 days): no drug accumulation was observed
- dose proportionality of mean plasma systemic exposures ([2]; daily 9-hour IV infusions, 11 and 44 mg): generally increased in a dose proportional manner
- AUC(0-inf) ([2]; human, plasma, intravenous, 11 mg, Day 1, read-out: AUCinf, Geo Mean): 166 ng·h/mL
- AUC(0-inf) ([2]; human, plasma, intravenous, 11 mg, Day 1, read-out: AUCinf, Mean): 167 ng·h/mL
- AUC(0-t) ([2]; human, plasma, intravenous, 11 mg, Day 1, read-out: AUClast, Geo Mean): 164 ng·h/mL
- AUC ([2]; human, plasma, intravenous, 11 mg, Day 1, read-out: AUCtau, Geo Mean): 164 ng·h/mL
- AUC ([2]; human, plasma, intravenous, 11 mg, Day 1, read-out: AUCtau, Mean): 165 ng·h/mL
- Cmax ([2]; human, plasma, intravenous, 11 mg, Day 1, read-out: Cmax, Geo Mean): 18.2 ng/mL
- Cmax ([2]; human, plasma, intravenous, 11 mg, Day 1, read-out: Cmax, Mean): 18.3 ng/mL
- AUC(0-t) ([2]; human, plasma, intravenous, 11 mg, Day 7, read-out: AUClast, Geo Mean): 182 ng·h/mL
- AUC ([2]; human, plasma, intravenous, 11 mg, Day 7, read-out: AUCtau, Geo Mean): 183 ng·h/mL
- AUC ([2]; human, plasma, intravenous, 11 mg, Day 7, read-out: AUCtau, Mean): 184 ng·h/mL
- Cmax at 7 days ([2]; human, plasma, intravenous, 11 mg, Day 7, read-out: Cmax, Geo Mean): 20.5 ng/mL
- AUC(0-inf) ([2]; human, plasma, intravenous, 44 mg, Day 1, read-out: AUCinf, Mean): 697 ng·h/mL
- AUC(0-t) ([2]; human, plasma, intravenous, 44 mg, Day 1, read-out: AUClast, Geo Mean): 682 ng·h/mL
- AUC ([2]; human, plasma, intravenous, 44 mg, Day 7, read-out: AUCtau, Geo Mean): 723 ng·h/mL
- AUC ([2]; human, plasma, intravenous, 44 mg, Day 7, read-out: AUCtau, Mean): 729 ng·h/mL
- Cmax at 7 days ([2]; human, plasma, intravenous, 44 mg, Day 7, read-out: Cmax, Geo Mean): 81.2 ng/mL
- Vd ([2]; human, plasma, intravenous, 11 mg, Day 1, read-out: Vz, Mean): 310 L
- Tmax at 7 days [2, 6]: 5.17 h
- clearance [2, 6]: 1010 mL/min
- clearance ([2]; human, plasma, intravenous, 44 mg, Day 1): 1080 mL/min
- Tmax ([2]; human, plasma, intravenous, 44 mg, Day 7): 4.93 h
- AUC(0-t) ([2]; human, plasma, iv, 11 mg, Day 1, 9 h IV infusion QD, NT1, read-out: AUClast, Mean): 164 ng·h/mL
- Number of Cataplexy Episodes (Time-matched), Median (patients with NT1 [3]; 11 mg, Day 1-7 (after infusion time up to 24 hours after start of infusion)): 1.0
- Number of Cataplexy Episodes (Time-matched), Mean (patients with NT1 [3]; 11 mg, Day 1-7 (after infusion time up to 24 hours after start of infusion), time-matched baseline 5.8): 3.0
- Number of Cataplexy Episodes (Time-matched), Median (patients with NT1 [3]; 11 mg, Day 1-7 (during infusion time)): 0.0
- Number of Cataplexy Episodes (Time-matched), Mean (patients with NT1 [3]; 11 mg, Day 1-7 (during infusion time), time-matched baseline 5.8): 0
- Number of Cataplexy Episodes (Time-matched), Mean (patients with NT1 [3]; 11 mg, Day 1-7 (during infusion time), time-matched baseline 5.8, listed as Cmpd A): 0.0
- Number of Cataplexy Episodes, Median (patients with NT1 [3]; 11 mg): 1.0
- Number of Cataplexy Episodes, Mean (patients with NT1 [3]; 11 mg, baseline 11.5): 3.0
- Number of Cataplexy Episodes (Time-matched), Median (patients with NT1 [3]; 44 mg, Day 1-7 (after infusion time up to 24 hours after start of infusion)): 1.0
- Number of Cataplexy Episodes (Time-matched), Mean (patients with NT1 [3]; 44 mg, Day 1-7 (after infusion time up to 24 hours after start of infusion), time-matched baseline 0.4): 1.4
- Number of Cataplexy Episodes (Time-matched), Median (patients with NT1 [3]; 44 mg, Day 1-7 (during infusion time)): 0.0
- Number of Cataplexy Episodes (Time-matched), Mean (patients with NT1 [3]; 44 mg, Day 1-7 (during infusion time), time-matched baseline 3.2): 0
- Number of Cataplexy Episodes (Time-matched), Mean (patients with NT1 [3]; 44 mg, Day 1-7 (during infusion time), time-matched baseline 3.2, listed as Cmpd A): 0.0
- Number of Cataplexy Episodes, Median (patients with NT1 [3]; 44 mg): 1.0
- Number of Cataplexy Episodes, Mean (patients with NT1 [3]; 44 mg, baseline 3.6): 1.4
- BP and PR increases vs plasma exposure (patients with NT1 [4]; NT1 patient populations): A trend for the observed BP and PR increases with increasing Compound A plasma exposure was observed
- safety and tolerability (patients with NT1 [4]; multiple IV administrations of up to 44 mg, 9 h infusion once daily for 7 days, NT1): safe and well tolerated
- SAE and TEAE leading to study drug discontinuation (patients with NT1 [4]; multiple IV administrations of up to 44 mg, NT1): There was no SAE, and no TEAE leading to study drug discontinuation
- BP and pulse rate increases vs Compound A concentration ([5]; human, in vivo): Trend for the observed BP and pulse rate increases in healthy subjects and Compound A concentration was observed
- commonly observed AEs ([5]; human, in vivo, iv): BP increased and heart rate increased
- adverse events (AEs), severity and seriousness ([5]; single dose, 9 hour IV infusion, Compound A groups (healthy subjects and NT1 patients)): all of the AEs were mild (except 1 moderate influenza) and no serious AEs were observed
